Test results: ChEMBL document CHEMBL1201862, “PubChem BioAssay data set” (2004)
Calls of active or inactive are those of the source.

How the values were obtained:
[1] = target: T1, Trace amine-associated receptor 1 (Homo sapiens, UniProt Q96RJ0); assay: Fluorescence-based cell-based high throughput dose response assay to identify agonists of the human trace amine associated receptor 1 (TAAR1).; assay type: functional
T1 sequence (Q96RJ0 whole entry): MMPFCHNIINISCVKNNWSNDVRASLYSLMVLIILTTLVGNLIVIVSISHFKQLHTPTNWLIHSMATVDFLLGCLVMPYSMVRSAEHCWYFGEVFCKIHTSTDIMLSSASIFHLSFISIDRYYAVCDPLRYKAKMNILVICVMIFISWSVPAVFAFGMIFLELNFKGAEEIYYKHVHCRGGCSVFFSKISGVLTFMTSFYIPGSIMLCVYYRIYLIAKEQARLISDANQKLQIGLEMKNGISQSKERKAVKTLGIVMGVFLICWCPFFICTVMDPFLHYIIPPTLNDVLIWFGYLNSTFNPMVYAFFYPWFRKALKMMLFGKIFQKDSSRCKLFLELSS

[2] = cells; assay type: functional, cell-based
[3] = cells; assay type: functional, cell-based; remark: listed apart in the source
[4] = target: T1, Trace amine-associated receptor 1; assay: Counterscreen for agonists of the human trace amine associated receptor 1 (hTAAR1): Fluorescence-based cell-based high throughput dose response assay to identify hTAAR1 agonist that also desensitize TAAR1 receptor response.; assay type: functional
[5] = EF1alpha-driven Renilla reporter with control 3'UTR suppression – Clone20-Shn3RL cells, dual-Glo, cherry-pick, set 2, counter-screen for Shn3 3'UTR targeting project, dose response (AID 720724); assay type: functional, cell-based; details: Dual-Go Shn3RL
[6] = reduction of Shn3 3'UTR-driven luciferase in osteoblasts – cell-based, Clone20 osteoblasts, firefly luciferase, cherry-picked, dose response (AID 624132); assay type: functional;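 further: firefly luciferase luminescence from reporter carrying the Shn3 3'UTR in osteoblasts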
[7] = Shn3 3'UTR reporter signal decrease – cell-based, Clone20 osteoblasts, firefly luciferase, cherry-pick, set 2, Schnurri-3 inhibitor project, dose response (AID 720490); assay type: functional;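 further: actives lower the luminescence signal as inhibitors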
[8] = non-specific 3'UTR reporter inhibition in Clone20-Shn3RL – cell-based, Renilla luciferase, cherry-picked, counter-screen for Shn3 inhibitor project, dose response (AID 624133); assay type: functional
[9] = loss of viability in HepG2 cells – cell-based, CellTiter-Glo, cherry-picked, cytotoxicity control for Shn3 inhibitor project, dose response (AID 624134); assay type: functional
[10] = T. cruzi growth inhibition in host cells, dose response, cell-based, plate reader, dry powder, set 2 (AID 652275); assay type: functional
[11] = general mammalian cell viability loss – inhibitor set, cherry-pick, set 2, cytotoxicity control for miR-122 modulator project, dose response (AID 720697); assay type: functional, cell-based
[12] = anti-trypanosomal activity in BESM host cells – imaging, CA-I/72 strain, bovine embryo skeletal muscle, dry powder, dose response (AID 651885); assay type: functional, cell-based
[13] = target: T1, Trace amine-associated receptor 1; assay: Fluorescence-based cell-based high throughput dose response assay to identify antagonists of the human trace amine associated receptor 1 (TAAR1).; assay type: functional
[14] = target: T1, Trace amine-associated receptor 1; assay: Counterscreen for antagonists of the human trace amine associated receptor 1 (hTAAR1): Fluorescence-based cell-based high throughput dose response assay to identify TAAR1 Agonists.; assay type: functional
[15] = Counterscreen for antagonists of the human trace amine associated receptor 1 (hTAAR1): Fluorescence-based cell-based high throughput dose response assay to identify nonselective Ga16 antagonists.; assay type: functional
[16] = Counterscreen for […] of the human trace amine associated receptor 1 (TAAR1): Fluorescence-based cell-based high throughput dose response assay to identify nonselective Ga16 agonists.; assay type: functional

In the case of `CCC(C)(C)n1nnnc1C(c1ccc(O)cc1)N1CCc2ccccc2C1` (stereo unspecified), the EC50 [1] was 333 nM (active), the IC50 [2] was > 29.9 µM (inactive) and the EC50 [3] was > 29.9 µM (inactive). The IC50 [4] was 1.26 µM (active).

For `Cc1nc(NC(C)c2ccccc2)c2oc3ccccc3c2n1` (stereo unspecified), the AC50 [5] was 46.5 µM (active), the AC50 [6] was 3.06 µM (active) and the AC50 [7] was 3.44 µM (active). For the same compound, the AC50 [8] was 24 µM (active) and the AC50 [9] was 35.1 µM (active).

In the case of `CC(c1ccc(Cl)cc1)N1CC2(C1)CN(C(C)C)C(=O)c1cccc(NC(=O)c3ccncc3)c1O2` (stereo unspecified), the AC50 [10] was 556 nM (active).

For `CNC(=O)C[C@H]1CC[C@H]2[C@@H](COc3ccc(NC(=O)C4CC4)cc3C(=O)N2C)O1`, the AC50 [11] was 2.59 µM (active).

With `CC(C)N1C[C@H](C)[C@@H](CN(C)C(=O)OC(C)(C)C)Oc2c(C(=O)O)cccc2C1=O` the IC50 [12] was > 20 µM (inactive).

In the case of `CCNC(=S)N/N=C/c1cc(C)n(-c2ccc(Cl)cc2)c1C`, the IC50 [13] was 1.13 µM (active), the EC50 [14] was 13.6 µM (inactive) and the IC50 [15] was > 29.9 µM (inactive). For the same compound, the EC50 [16] was > 29.9 µM (inactive).
